Reference: US12492182B2, “Hydroxytriazine compounds and pharmaceutical use thereof” (Japan Tobacco Inc., priority 2015, dated 2025)
Where two headings read alike, the source gives them in different places.

Columns and labels:
human mPGES-1 = target: T1, human mPGES-1 (Homo sapiens, UniProt O14684); test: Evaluation of human mPGES-1 enzyme inhibitory activity (HTRF measurement of PGE2); type: biochemical; settings: IC50 value; microsome fraction of CHO-S cells expressing human mPGES-1, PGH2 substrate, PGE2 by HTRF; read-out: humans mPGES-1 enzyme inhibitory activity
T1 construct: made in house; host or cells: Chinese hamster ovary-derived cells (FreeStyle CHO-S), transient transfection of pcDNA3.1(+)/human mPGES-1; microsome fraction
T1 sequence (O14684 1-152): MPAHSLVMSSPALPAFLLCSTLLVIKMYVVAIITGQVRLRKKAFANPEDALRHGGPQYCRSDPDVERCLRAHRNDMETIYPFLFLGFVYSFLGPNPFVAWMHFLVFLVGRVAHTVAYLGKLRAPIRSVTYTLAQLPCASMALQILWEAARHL
Outline: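 Enzyme source was a microsome fraction from CHO-S cells transfected with human mPGES-1, diluted to 5 μg/mL protein in reduced GSH (12.5 mmol/L KPB), preincubated with compound for 10 min at room temperature with 2% final DMSO. Reaction started with PGH2 and run 45 seconds at room temperature. PGE2 measured by HTRF.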

A549 cell = test: Evaluation of PGE2 production inhibitory action using A549 cell (IL-1β stimulated); type: cell-based, human; settings: for IC50: recombinant human IL-1β stimulation, read-out: cell PGE2 production inhibitory activity (IC50 value)
Outline: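 A549 cells (human lung cancer) in F-12K with 2% FBS were preincubated with test article for 30 min, then stimulated with IL-1β (1 ng/mL final) for 18 hr at 37 °C; 0.5% DMSO final. Supernatant PGE2 was measured by HTRF against a standard curve; inhibition is relative to vehicle and unstimulated blank wells.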

| Compound | IC50 (human mPGES-1) | IC50 (A549 cell; Homo sapiens, A549, A549 cell) | inhibition at 0.03 µM (A549 cell; Homo sapiens, A549 cell, IL-1β stimulation, at the highest concentration given (0.03 μM), read-out: cell PGE2 production inhibitory activity (%), printed in parentheses after the > bound) | IC50 (A549 cell; A549 cell) |
| --- | --- | --- | --- | --- |
| CCC[C@H](C)Oc1ccc(-c2nc(O)nc(-c3cc(CNC(=O)C4(CF)CCCCC4)ccc3Cl)n2)cn1 [Example 106] | 3.6 nM | 5 nM | – | – |
| CC(C)c1cc(-c2nc(O)nc(-c3cc(CNC(=O)C4(C(F)F)CCCCC4)ccc3Cl)n2)ccc1Cl [Example 108] | 2.4 nM | 2.4 nM | – | – |
| CCC[C@H](C)Oc1ccc(-c2nc(O)nc(-c3cc(CNC(=O)C4(C(F)F)CCCCC4)ccc3Cl)n2)cn1 [Example 109] | 3.2 nM | 1.8 nM | – | – |
| CCC[C@H](C)Oc1ccc(-c2nc(O)nc(-c3cc(CNC(=O)C4(C(F)F)CCCC4)ccc3Cl)n2)cn1 [Example 110] | 3.7 nM | 2.7 nM | – | – |
| CC(C)c1cccc(-c2nc(O)nc(-c3cc(CNC(=O)C4(CF)CCCCCC4)ccc3Cl)n2)c1 [Example 111] | 1.5 nM | 54 nM | – | – |
| CC(C)(C)c1cccc(-c2nc(O)nc(-c3cc(CNC(=O)C4(CF)CCCCCC4)ccc3Cl)n2)c1 [Example 112] | 3.3 nM | 24 nM | – | – |
| CC1(c2cccc(-c3nc(O)nc(-c4cc(CNC(=O)C5(CF)CCCCCC5)ccc4Cl)n3)c2)CC1 [Example 113] | 1.8 nM | 95 nM | – | – |
| CC(C)c1cc(-c2nc(O)nc(-c3cc(CNC(=O)C4(CF)CCCCCC4)ccc3Cl)n2)ccc1Cl [Example 114] | 3.1 nM | 13 nM | – | – |
| CCC(CC)(CF)C(=O)NCc1ccc(Cl)c(-c2nc(O)nc(-c3ccc(Cl)c(C(C)C)c3)n2)c1 [Example 115] | 1.3 nM | 6.6 nM | – | – |
| CCC(CC)(C(=O)NCc1ccc(Cl)c(-c2nc(O)nc(-c3cccc(C(C)C)c3)n2)c1)C(F)F [Example 116] | 1.2 nM | 7.2 nM | – | – |
| CCC(CC)(C(=O)NCc1ccc(Cl)c(-c2nc(O)nc(-c3cccc(C(C)(C)C)c3)n2)c1)C(F)F [Example 117] | 1.6 nM | 4.2 nM | – | – |
| CCC(CC)(C(=O)NCc1ccc(Cl)c(-c2nc(O)nc(-c3cccc(C4(C)CC4)c3)n2)c1)C(F)F [Example 118] | 0.4 nM | 17 nM | – | – |
| CCC(CC)(C(=O)NCc1ccc(Cl)c(-c2nc(O)nc(-c3ccc(Cl)c(C(C)C)c3)n2)c1)C(F)F [Example 119] | 1.8 nM | 3 nM | – | – |
| CC(C)c1cccc(-c2nc(O)nc(-c3cc(CNC(=O)C4(C(F)F)CCCCCC4)ccc3Cl)n2)c1 [Example 120] | 1.8 nM | > 30 nM | 43% | – |
| CC(C)(C)c1cccc(-c2nc(O)nc(-c3cc(CNC(=O)C4(C(F)F)CCCCCC4)ccc3Cl)n2)c1 [Example 121] | 3.3 nM | 7.9 nM | – | – |
| CC1(c2cccc(-c3nc(O)nc(-c4cc(CNC(=O)C5(C(F)F)CCCCCC5)ccc4Cl)n3)c2)CC1 [Example 122] | 1.8 nM | 19 nM | – | – |
| CCC[C@@H](C)Oc1ccc(-c2nc(O)nc(-c3cc(CNC(=O)C(CC)(CC)C(F)F)ccc3Cl)n2)cn1 [Example 123] | 4 nM | 1.5 nM | – | – |
| CCC[C@@H](C)Oc1ccc(-c2nc(O)nc(-c3cc(CNC(=O)C(CC)(CC)CF)ccc3Cl)n2)cn1 [Example 124] | 2.6 nM | 2.5 nM | – | – |
| CCC[C@@H](C)Oc1ccc(-c2nc(O)nc(-c3cc(CNC(=O)C4(C(F)(F)F)CCCC4)ccc3Cl)n2)cn1 [Example 125] | 6 nM | 1.6 nM | – | – |
| CCC[C@@H](C)Oc1ccc(-c2nc(O)nc(-c3cc(CNC(=O)C4(C(F)F)CCCC4)ccc3Cl)n2)cn1 [Example 126] | 3.1 nM | 2.5 nM | – | – |
| CCC[C@@H](C)Oc1ccc(-c2nc(O)nc(-c3cc(CNC(=O)C4(C(F)F)CCCCC4)ccc3Cl)n2)cn1 [Example 127] | 2.4 nM | 0.9 nM | – | – |
| CCC[C@@H](C)Oc1ccc(-c2nc(O)nc(-c3cc(CNC(=O)C4(CF)CCCCC4)ccc3Cl)n2)cn1 [Example 128] | 2.2 nM | 1.3 nM | – | – |
| CCC[C@H](C)Oc1ccc(-c2nc(O)nc(-c3cc(CNC(=O)C(CC)(CC)C(F)F)ccc3Cl)n2)cn1 [Example 130] | 3.8 nM | 1.2 nM | – | – |
| CCC(OC)(C(=O)NCc1ccc(Cl)c(-c2nc(O)nc(-c3cccc(C(C)(C)C)c3)n2)c1)C(F)(F)F (centres unmarked) [Example 133] | 1.4 nM | – | – | 2.4 nM |
| CCC(OC)(C(=O)NCc1ccc(Cl)c(-c2nc(O)nc(-c3cccc(C(C)(C)C)c3)n2)c1)C(F)(F)F (centres unmarked) [Example 135] | 2 nM | – | – | 5.4 nM |
| CCC(OC)(C(=O)NCc1ccc(Cl)c(-c2nc(O)nc(-c3cccc(C4(C)CC4)c3)n2)c1)C(F)(F)F (centres unmarked) [Example 136] | 1.2 nM | 10 nM | – | – |
